Reference: publication PMC11240139, “Exploring the antitumor potential of novel quinoline derivatives via tubulin polymerization inhibition in breast cancer; design, synthesis and molecular docking” (RSC Advances, 2024)

Experiments:
MOLT-4 (leukemia) = assay: NCI-60 SRB cytotoxicity screen; format: cell-based; settings: Homo sapiens; MOLT-4, single dose 10 μM; read-out: growth inhibition (GI%)
RPMI-8226 (leukemia) = assay: NCI-60 SRB cytotoxicity screen; format: cell-based; settings: Homo sapiens; RPMI-8226, single dose 10 μM; read-out: growth inhibition (GI%)
SR (leukemia) = assay: NCI-60 SRB cytotoxicity screen; format: cell-based; settings: single dose 10 μM; for inhibition at 10 µM: read-out: growth inhibition (GI%)
[1] = system: EKVX (non-small cell lung cancer); assay: NCI-60 SRB cytotoxicity screen; format: cell-based; settings: Homo sapiens, single dose 10 μM, read-out: growth inhibition (GI%)
[2] = system: HOP-92 (non-small cell lung cancer); assay: NCI-60 SRB cytotoxicity screen; format: cell-based; settings: Homo sapiens; HOP-92, single dose 10 μM; read-out: growth inhibition (GI%)
[3] = system: NCI-H226 (non-small cell lung cancer); assay: NCI-60 SRB cytotoxicity screen; format: cell-based; settings: NCI-H226, single dose 10 μM; for inhibition at 10 µM: Homo sapiens, read-out: growth inhibition (GI%)
COLO 205 (colon cancer) = assay: NCI-60 SRB cytotoxicity screen; format: cell-based; settings: Homo sapiens; COLO 205, single dose 10 μM; read-out: growth inhibition (GI%)
HCC-2998 (colon cancer) = assay: NCI-60 SRB cytotoxicity screen; format: cell-based; settings: Homo sapiens; HCC-2998, single dose 10 μM; read-out: growth inhibition (GI%)
HCT-116 (colon cancer) = assay: NCI-60 SRB cytotoxicity screen; format: cell-based; settings: Homo sapiens; HCT-116, single dose 10 μM; read-out: growth inhibition (GI%)
HT29 (colon cancer) = assay: NCI-60 SRB cytotoxicity screen; format: cell-based; settings: Homo sapiens, HT-29; HT29, single dose 10 μM; read-out: growth inhibition (GI%)
KM12 (colon cancer) = assay: NCI-60 SRB cytotoxicity screen; format: cell-based; settings: Homo sapiens; KM12, single dose 10 μM; read-out: growth inhibition (GI%)
SW-620 (colon cancer) = assay: NCI-60 SRB cytotoxicity screen; format: cell-based; settings: Homo sapiens; SW-620, single dose 10 μM; read-out: growth inhibition (GI%)
SF-295 (CNS cancer) = assay: NCI-60 SRB cytotoxicity screen; format: cell-based; settings: Homo sapiens; SF-295, single dose 10 μM; read-out: growth inhibition (GI%)
SNB-75 (CNS cancer) = assay: NCI-60 SRB cytotoxicity screen; format: cell-based; settings: Homo sapiens, SNB-75, SNB-75, single dose 10 μM; read-out: growth inhibition (GI%)
LOX IMVI (melanoma) = assay: NCI-60 SRB cytotoxicity screen; format: cell-based; settings: Homo sapiens, single dose 10 μM, read-out: growth inhibition (GI%)
MALME-3M (melanoma) = assay: NCI-60 SRB cytotoxicity screen; format: cell-based; settings: Homo sapiens, single dose 10 μM, read-out: growth inhibition (GI%)
M14 (melanoma) = assay: NCI-60 SRB cytotoxicity screen; format: cell-based; settings: Homo sapiens; M14, single dose 10 μM; read-out: growth inhibition (GI%)
SK-MEL-28 (melanoma) = assay: NCI-60 SRB cytotoxicity screen; format: cell-based; settings: Homo sapiens; SK-MEL-28, single dose 10 μM; read-out: growth inhibition (GI%)
UACC-257 (melanoma) = assay: NCI-60 SRB cytotoxicity screen; format: cell-based; settings: Homo sapiens; UACC-257, single dose 10 μM; read-out: growth inhibition (GI%)
IGROV1 (ovarian cancer) = assay: NCI-60 SRB cytotoxicity screen; format: cell-based; settings: Homo sapiens, IGROV-1; IGROV1, single dose 10 μM; read-out: growth inhibition (GI%)
OVCAR-3 (ovarian cancer) = assay: NCI-60 SRB cytotoxicity screen; format: cell-based; settings: Homo sapiens; OVCAR-3, single dose 10 μM; read-out: growth inhibition (GI%)
[4] = system: NCI/ADR-RES (ovarian cancer); assay: NCI-60 SRB cytotoxicity screen; format: cell-based; settings: Homo sapiens, single dose 10 μM, read-out: growth inhibition (GI%)
786-0 (renal cancer) = assay: NCI-60 SRB cytotoxicity screen; format: cell-based; settings: Homo sapiens; 786-0, single dose 10 μM; read-out: growth inhibition (GI%)
A498 (renal cancer) = assay: NCI-60 SRB cytotoxicity screen; format: cell-based; settings: Homo sapiens; A498, single dose 10 μM; read-out: growth inhibition (GI%)
CAKI-1 (renal cancer) = assay: NCI-60 SRB cytotoxicity screen; format: cell-based; settings: Homo sapiens; CAKI-1, single dose 10 μM; read-out: growth inhibition (GI%)
SN12C (renal cancer) = assay: NCI-60 SRB cytotoxicity screen; format: cell-based; settings: Homo sapiens, single dose 10 μM, read-out: growth inhibition (GI%)
TK-10 (renal cancer) = assay: NCI-60 SRB cytotoxicity screen; format: cell-based; settings: Homo sapiens; TK-10, single dose 10 μM; read-out: growth inhibition (GI%)
PC-3 (prostate cancer) = assay: NCI-60 SRB cytotoxicity screen; format: cell-based; settings: PC-3, single dose 10 μM; read-out: growth inhibition (GI%)
DU-145 (prostate cancer) = assay: NCI-60 SRB cytotoxicity screen; format: cell-based; settings: Homo sapiens; DU-145, single dose 10 μM; read-out: growth inhibition (GI%)
[5] = system: MDA-MB-231/ATCC (breast cancer); assay: NCI-60 SRB cytotoxicity screen; format: cell-based; settings: Homo sapiens, MDA-MB-231, read-out: growth inhibition (GI%)

| SMILES | inhibition at 10 µM (MOLT-4 (leukemia)) | inhibition at 10 µM (RPMI-8226 (leukemia)) | inhibition at 10 µM (SR (leukemia)) | inhibition at 10 µM [1] | inhibition at 10 µM [2] | inhibition at 10 µM [3] | inhibition at 10 µM (COLO 205 (colon cancer)) | inhibition at 10 µM (HCC-2998 (colon cancer)) | inhibition at 10 µM (HCT-116 (colon cancer)) | inhibition at 10 µM (HT29 (colon cancer)) | inhibition at 10 µM (KM12 (colon cancer)) | inhibition at 10 µM (SW-620 (colon cancer)) | inhibition at 10 µM (SF-295 (CNS cancer)) | inhibition at 10 µM (SNB-75 (CNS cancer)) | inhibition at 10 µM (LOX IMVI (melanoma)) | inhibition at 10 µM (MALME-3M (melanoma)) | inhibition at 10 µM (M14 (melanoma)) | inhibition at 10 µM (SK-MEL-28 (melanoma)) | inhibition at 10 µM (UACC-257 (melanoma)) | inhibition at 10 µM (IGROV1 (ovarian cancer)) | other results |
| --- | --- | --- | --- | --- | --- | --- | --- | --- | --- | --- | --- | --- | --- | --- | --- | --- | --- | --- | --- | --- | --- |
| CCc1cccc2cc(-c3cc(-c4ccc(OC)cc4)[nH]c(=S)c3C#N)c(Cl)nc12 [Compound 5a, 4-(2-Chloro-8-ethylquinolin-3-yl)-6-(4-methoxyphenyl)-2-thioxo-1,2-dihydropyridine-3-carbonitrile] | 12.7% | 15.7% | 11.6% | 10.3% | 36.2% | 15.9% | < 10% | < 10% | 14.8% | < 10% | < 10% | < 10% | 13.8% | 21.6% | < 10% | < 10% | < 10% | < 10% | < 10% | 12.9% | inhibition at 10 µM (OVCAR-3 (ovarian cancer)): < 10%; inhibition at 10 µM [4]: < 10%; inhibition at 10 µM (786-0 (renal cancer)): < 10%; inhibition at 10 µM (A498 (renal cancer)): < 10%; inhibition at 10 µM (CAKI-1 (renal cancer)): 44.7%; inhibition at 10 µM (SN12C (renal cancer)): 10.3%; inhibition at 10 µM (TK-10 (renal cancer)): < 10%; inhibition at 10 µM (PC-3 (prostate cancer)): < 10%; inhibition at 10 µM (DU-145 (prostate cancer)): < 10%; inhibition at 10 µM [5]: 18.1%; melting point: 290 to 292 °C |
| CCc1cccc2cc(C=CC(=O)c3ccc(OC)c(OC)c3)c(Cl)nc12 [Compound 3b, 3-(2-Chloro-8-ethylquinolin-3-yl)-1-(3,4-dimethoxyphenyl)prop-2-en-1-one] | 49.2% | 56.2% | 80.1% | < 10% | 27.4% | > 100% | 22.4% | 17.7% | 62.8% | 26.9% | 23.5% | 72.2% | 21.8% | > 100% | 43.4% | < 10% | < 10% | < 10% | < 10% | < 10% | growth inhibition (GI%) (SR (leukemia)): 80.06%; growth inhibition (GI%) [3]: lethal effect; inhibition at 10 µM (OVCAR-3 (ovarian cancer)): 31.7%; inhibition at 10 µM [4]: 45.8%; inhibition at 10 µM (786-0 (renal cancer)): 25.7%; inhibition at 10 µM (A498 (renal cancer)): < 10%; inhibition at 10 µM (CAKI-1 (renal cancer)): 40.2%; inhibition at 10 µM (SN12C (renal cancer)): 23.7%; inhibition at 10 µM (TK-10 (renal cancer)): < 10%; inhibition at 10 µM (PC-3 (prostate cancer)): 32%; inhibition at 10 µM (DU-145 (prostate cancer)): 15.8%; inhibition at 10 µM [5]: 29.3%; melting point: 135 to 137 °C |
